Measurements reported in ChEMBL document CHEMBL4382273, “Antiprotozoal Isoprenoids from Salvia hydrangea” (J Nat Prod, 2018).

How the values were obtained:
[1] = test system: Leishmania donovani; test: Antileishmanial activity against Leishmania donovani MHOM/ET/67/L82 axenic amastigotes after 72 hrs by alamar blue staining based fluorescence assay; type: functional, organism-based; details: MHOM/ET/67/L82, 72 h
[2] = test system: Trypanosoma brucei rhodesiense; test: Antiprotozoal activity against trypomastigote stage of Trypanosoma brucei rhodesiense STIB900 after 72 hrs by Alamar Blue assay; type: functional, organism-based; details: STIB900, 72 h
[3] = Selectivity index, ratio of IC50 for rat L6 cells to IC50 for Trypanosoma cruzi Tulahuen C4 amastigotes harboring LacZ infected in rat L6 cells; type: toxicity, cell-based; details: read-out: Ratio IC50
[4] = Selectivity index, ratio of IC50 for rat L6 cells to IC50 for Leishmania donovani MHOM/ET/67/L82 axenic amastigotes; type: toxicity; details: read-out: Ratio IC50
[5] = test system: Plasmodium falciparum; test: microbe, parasite or virus in culture; details: NF54
Description: Antiplasmodial activity against IEF stage of Plasmodium falciparum NF54 assessed as reduction in [3H]hypoxanthine incorporation preincubated for 48 hrs followed by [3H]hypoxanthine addition measured after 24 hrs by liquid scintillation counting method

[6] = test system: Trypanosoma cruzi; test: Antitrypanosomal activity against Trypanosoma cruzi Tulahuen C4 amastigotes harboring LacZ infected in rat L6 cells after 96 hrs by CPRG/Nonidet reagent based photometric analysis; type: functional, organism-based; details: Tulahuen C4, L6, 96 h
[7] = Selectivity index, ratio of IC50 for rat L6 cells to IC50 for IEF stage of Plasmodium falciparum NF54; type: toxicity; details: read-out: Ratio IC50
[8] = test system: L6; test: Cytotoxicity against rat L6 cells after 72 hrs by alamar blue assay; type: cell-based; details: L6, 72 h
[9] = Selectivity index, ratio of IC50 for rat L6 cells to IC50 for trypomastigote stage of Trypanosoma brucei rhodesiense STIB900; type: toxicity; details: read-out: Ratio IC50

| Structure (SMILES) | IC50 [1] [µM] | IC50 [2] [µM] | selectivity ratio [3] | selectivity ratio [4] | IC50 [5] [µM] | IC50 [6] [µM] | selectivity ratio [7] | IC50 [8] [µM] | selectivity ratio [9] |
| --- | --- | --- | --- | --- | --- | --- | --- | --- | --- |
| CC1=C2C[C@@H]3C(C)(C)O[C@]45O[C@@]4(C(C)C)C(=O)[C@]4(CC[C@H]6C(C)(C)CCC[C@]67C[C@]24[C@]35O7)CC1=O | 12.3 | 30.5 | 6.3 | 5.9 | 1.3 | 11.5 | 56.9 | 72.2 | 2.4 |
| CC(=O)[C@@]12C[C@H]3C(C)(C)OC4=C(C(C)C)C(=O)[C@]5(CC[C@H]6C(C)(C)CCC[C@]67C[C@@]51[C@@]43O7)C[C@H]2O | 12.3 | 85.8 | 1.2 | 3.3 | 7.9 | 33.9 | 5.2 | 41.1 | 0.5 |
| CC(C)C1=C2OC(C)(C)[C@H]3C[C@@]45O[C@]4(C)[C@H](O)C[C@@]4(CC[C@H]6C(C)(C)CCC[C@]67C[C@@]45[C@@]23O7)C1=O | 44.1 | 74.6 | 2.4 | 1.1 | 3.6 | 19.8 | 12.9 | 46.9 | 0.6 |
| C=CC1=C[C@@H]2[C@H]3C(C)=CO[C@]45O[C@]67CCCC(C)(C)[C@@H]6CC[C@](C1)(C(=O)[C@]3(C(C)C)C4=O)[C@]25C7 | 15.6 | 24.6 | 0.9 | 2.7 | 1.9 | 47.9 | 22 | 41.6 | 1.7 |
| CC1=C2C[C@@H]3C(C)(C)OC4=C(C(C)C)C(=O)[C@]5(CC[C@H]6C(C)(C)CCC[C@]67C[C@]25[C@@]43O7)CC1=O | 15.5 | 56 | 10.7 | 2.4 | 0.6 | 3.5 | 62.2 | 37.2 | 0.7 |
| C[C@@H]1CC[C@H]2[C@@H](C)C(=O)O[C@@H]3O[C@@]4(C)CC[C@@H]1[C@]32OO4 [ARTEMISININ] |  |  |  |  | 0.008 |  |  |  |  |
| CCCCCCCCCCCCCCCCOP(=O)([O-])OCC[N+](C)(C)C [MILTEFOSINE] | 0.9 |  |  |  |  |  |  |  |  |
| CC1=C2[C@H](O)[C@@H]3C(C)(C)OC4=C(C(C)C)C(=O)[C@]5(CC[C@H]6C(C)(C)CCC[C@]67C[C@]25[C@@]43O7)CC1=O | 7.5 | 45.3 | 3.6 | 1.8 | 7.5 | 3.8 | 1.8 | 13.6 | 0.3 |
| O=C(Cn1ccnc1[N+](=O)[O-])NCc1ccccc1 [BENZNIDAZOLE] |  |  |  |  |  | 5.1 |  |  |  |
| CC(C)=C[C@H]1[C@@H]2C(C)=CC[C@]34CC[C@H]5C(C)(C)CCC[C@]56C[C@]23[C@@](O)(O6)C(=O)[C@]1(C(C)C)C4=O | 21.3 | 66.9 | 1.3 | 2.2 | 1.1 | 35.8 | 44.2 | 47.2 | 0.7 |
| Nc1nc(N)nc(Nc2ccc([As]3SCC(CO)S3)cc2)n1 (configuration not stated) [MELARSOPROL] |  | 0.04 |  |  |  |  |  |  |  |
